Source: patent US20250281453A1, “COMBINATION THERAPIES COMPRISING QTX125” (QUIMATRYX, S.L., priority 2022, published 2025)

Columns and labels:
Format in all cases: cell-based
[1] = system: HCT-116 colonic cancer cells; assay: Cell viability, hexosaminidase assay, monotherapy; conditions: for EC50: read-out: EC50 dose of monotherapy
Procedure: (§1) In brief, HCT-116, MiaPaCa-2 and Panc-1 cells were thawed in high glucose DMEM (Sigma D5796) with 10% heat-inactivated Foetal Calf Serum (FCS) (PAA, A15-101)). Hep-G2 and SK-Hep1 cells were thawed in Minimum Essential Media (MEM) (Sigma M2279) with 1% non-essential amino acids (Sigma M7145), 2 mM Glutamine (Sigma G7513) and 10% FCS. SK-OV-3 cells were thawed in McCoy's 5A medium (Sigma, M8403) with 15% FCS. All cells were passaged by washing once in cation-free dPBS (Sigma, D1408), and incubated for 3 minutes with trypsin ([0.5 μg/ml]/EDTA [0.2 μg/ml] (Sigma, T4174) in dPBS). Passage was completed at 37° C., and cells were transferred to the appropriate media. Prior to seeding at defined cell density, cells were recovered in medium, centrifuged and resuspended for counting.
(§2) To prepare cells for viability assays, cells were transferred into 96 well tissue culture plates (Cultek), and resuspended in 100 µL at the following densities: 10,000 cells/well (Hep-G2 and MiaPaCa-2), 5000 cells/well (Panc-1 and SK-OV-3) or 3000 cells/well (HCT-116). Following 24 hours of incubation, media was removed and replaced with 100 µL media spiked with QTX125 and the test chemotherapeutic agents. Stock solutions for the agents used in this study are shown below in Table 1. Cells were incubated for a further 72 hours before cell viability was assessed using both ALAMAR® and hexosaminidase assays.
(§3) For the hexosaminidase assay, media containing QTX125 and the test chemotherapeutic agents was removed, and cells were washed once with PBS. 60 μL of substrate solution (containing: 7.5 mM p-nitrophenol-N-acetyl-beta-D-glucosamide [Sigma N-9376], 0.1 M sodium citrate, pH 5.0 and 0.25% Triton X-100) was added to each well and cells were incubated at 37° C. for at least 1 hour. Incubating cells in this manner causes the substrate solution to become bright yellow, at which point 90 μL of developer solution (containing 50 mM Glycine pH 10.4 and 5 mM EDTA) was added to each well. Absorbance at 410 nm was recorded using a plate reader.
(§4) A number of appropriate control samples were included. First, absorbance values measured in reagent ‘blank’ wells (containing cell culture medium and colorimetric agent only) were subtracted from ‘test’ sample-containing wells. ‘Blank’ absorbance values were routinely between 5 and 10% of the values recorded in test wells. Absorbance values recorded in test wells were then compared against wells containing (i) cells stimulated with QTX125 only; (ii) cells stimulated with sorafenib, gemcitabine or bortezomib only and/or (iii) unstimulated cells, as appropriate.
(§5) Control values were normalised to 100% and percentage (%) viability was calculated. Data were used to plot log dose-response curves using a sigmoid dose-response (variable slope) equation. EC50 values were obtained using Equation 1, where ‘X’ is the logarithmic concentration; ‘Y’ is the response output and it is assumed that Y starts at bottom of the graph and reaches the top with an overall sigmoid shape.
(§6) Prior to assessing the oncolytic efficacy of QTX125-containing combination therapies, the oncolytic effect of each test agent was assessed in isolation. Dose-response curves were produced by serial dilution (1:1), thereby allowing monotherapy EC50 values to be calculated.
(§7) Chemotherapeutic agents were added to wells at a starting concentration of 100 μM. However, it was quickly determined that it was not possible to use this range for all chemotherapeutic agents tested. An optimization study was therefore completed to identify suitable maximum (‘high’) doses for each agent and in each individual cell line.

[2] = system: Hep-G2 hepatic cancer cells; assay: Cell viability, hexosaminidase assay, monotherapy; conditions: for EC50: HepG2, 72 h, read-out: EC50 dose of monotherapy; for percentage (%) cell viabilities: 72 hours of high-dose monotherapy (Table 2: QTX125 5, sorafenib 100, gemcitabine 100, bortezomib 1 μM)
Procedure: as §1, §2, §3, §4, §5, §6, §7

[3] = system: SK-OV-3 ovarian cancer cells; assay: Cell viability, hexosaminidase assay, monotherapy; conditions: for EC50: read-out: EC50 dose of monotherapy
Procedure: as §1, §2, §3, §4, §5, §6, §7

[4] = system: MiaPaCa-2 pancreatic cancer cells; assay: Cell viability, hexosaminidase assay, monotherapy; conditions: for EC50: MIA PaCa-2, 72 h, read-out: EC50 dose of monotherapy; for percentage (%) cell viabilities: 72 hours of high-dose monotherapy (Table 2: QTX125 100, sorafenib 100, gemcitabine 100, bortezomib 1 μM)
Procedure: as §1, §2, §3, §4, §5, §6, §7

[5] = system: Panc-1 pancreatic cancer cells; assay: Cell viability, hexosaminidase assay, monotherapy; conditions: for EC50: read-out: EC50 dose of monotherapy
Procedure: as §1, §2, §3, §4, §5, §6, §7

[6] = system: HCT-116 colonic cancer cells; assay: Cell viability, ALAMAR blue assay, monotherapy; conditions: for EC50: 72 h, read-out: EC50 dose of monotherapy
Procedure: as §1, §2
(§8) For the ALAMAR® blue assay, media containing QTX125 and the test chemotherapeutic agents was removed, and cells were stained using ALAMAR® blue (BioSource DAL 1100) for 4 hours at 37° C., following the manufacturer's instructions. Relative fluorescent intensity was measured using a Cytofluor® plate reader (Millipore) at 535/590 nm (Excitation/emission). This measure directly correlates with the number of viable cells present in each well.
as §4, §5, §6, §7

[7] = system: Hep-G2 hepatic cancer cells; assay: Cell viability, ALAMAR blue assay, monotherapy; conditions: for EC50: HepG2, 72 h, read-out: EC50 dose of monotherapy; for percentage (%) cell viabilities: 72 hours of high-dose monotherapy (Table 2: QTX125 5, sorafenib 100, gemcitabine 100, bortezomib 1 μM)
Procedure: as §1, §2, §8, §4, §5, §6, §7

[8] = system: SK-OV-3 ovarian cancer cells; assay: Cell viability, ALAMAR blue assay, monotherapy; conditions: for EC50: 72 h, read-out: EC50 dose of monotherapy
Procedure: as §1, §2, §8, §4, §5, §6, §7

[9] = system: MiaPaCa-2 pancreatic cancer cells; assay: Cell viability, ALAMAR blue assay, monotherapy; conditions: for EC50: MIA PaCa-2, 72 h, 72 h, read-out: EC50 dose of monotherapy; for percentage (%) cell viabilities: 72 hours of high-dose monotherapy (Table 2: QTX125 100, sorafenib 100, gemcitabine 100, bortezomib 1 μM)
Procedure: as §1, §2, §8, §4, §5, §6, §7

[10] = system: Panc-1 pancreatic cancer cells; assay: Cell viability, ALAMAR blue assay, monotherapy; conditions: for EC50: 72 h, read-out: EC50 dose of monotherapy
Procedure: as §1, §2, §8, §4, §5, §6, §7

[11] = Homo sapiens, 72 hours of high-dose monotherapy (Table 2: QTX125 1, sorafenib 100, gemcitabine 10, bortezomib 1 μM), read-out: percentage (%) cell viabilities
[12] = Homo sapiens, HepG2, 72 hours of high-dose monotherapy (Table 2: QTX125 5, sorafenib 100, gemcitabine 100, bortezomib 1 μM), read-out: percentage (%) cell viabilities
[13] = Homo sapiens, 72 hours of high-dose monotherapy (Table 2: QTX125 10, sorafenib 100, gemcitabine 10, bortezomib 1 μM), read-out: percentage (%) cell viabilities
[14] = Homo sapiens, MIA PaCa-2, 72 hours of high-dose monotherapy (Table 2: QTX125 100, sorafenib 100, gemcitabine 100, bortezomib 1 μM), read-out: percentage (%) cell viabilities
[15] = Homo sapiens, 72 hours of high-dose monotherapy (Table 2: QTX125 100, sorafenib 100, gemcitabine 100, bortezomib 1 μM), read-out: percentage (%) cell viabilities
[16] = high-dose monotherapy, 72 hours
[17] = 72 hours of high-dose monotherapy (Table 2: QTX125 1, sorafenib 100, gemcitabine 10, bortezomib 1 μM)
[18] = 72 hours of high-dose monotherapy (Table 2: QTX125 10, sorafenib 100, gemcitabine 10, bortezomib 1 μM)
[19] = 72 hours of high-dose monotherapy (Table 2: QTX125 100, sorafenib 100, gemcitabine 100, bortezomib 1 μM)

| SMILES | EC50 ([1]; Homo sapiens, 72 h) [nM] | EC50 ([2]; Homo sapiens) [nM] | EC50 ([3]; Homo sapiens, 72 h) [nM] | EC50 ([4]; Homo sapiens) [nM] | EC50 ([5]; Homo sapiens, 72 h) [nM] | EC50 ([6]; Homo sapiens) [nM] | EC50 ([7]; Homo sapiens) [nM] | EC50 ([8]; Homo sapiens) [nM] | EC50 ([9]; Homo sapiens) [nM] | EC50 ([10]; Homo sapiens) [nM] | percentage (%) cell viabilities [1, 17] [%] | percentage (%) cell viabilities [2] [%] | percentage (%) cell viabilities [3, 18] [%] | percentage (%) cell viabilities [4] [%] | percentage (%) cell viabilities [5, 19] [%] | percentage (%) cell viabilities [6, 17] [%] | percentage (%) cell viabilities [7] [%] | percentage (%) cell viabilities [8, 18] [%] | percentage (%) cell viabilities [9] [%] | percentage (%) cell viabilities [10, 19] [%] | also measured |
| --- | --- | --- | --- | --- | --- | --- | --- | --- | --- | --- | --- | --- | --- | --- | --- | --- | --- | --- | --- | --- | --- |
| CC(C)C[C@H](NC(=O)[C@H](Cc1ccccc1)NC(=O)c1cnccn1)B(O)O [bortezomib] | 6.6 ± 0.5 | 16 ± 1 | 6.8 ± 0.4 | 8.6 ± 0.5 | 9.3 ± 0.8 | 7.9 ± 0.4 | 16 ± 0.7 | 7 ± 1 | 13 ± 0.5 | 6.2 | – | – | – | – | – | – | – | – | – | – | viability at 1 µM [1, 11]: 4.9%; viability at 1 µM [2, 12]: 8.8%; viability at 1 µM [3, 13]: 9.3%; viability at 1 µM [4, 14]: 4.1%; viability at 1 µM [5, 15]: 3%; reduction of the population of viable cells [5, 16]: 97%; viability at 1 µM [6, 11]: 0%; viability at 1 µM [7, 12]: 0%; viability at 1 µM [8, 13]: 0%; viability at 1 µM [9, 14]: 0%; viability at 1 µM [10, 15]: 0% |
| Nc1ccn([C@@H]2O[C@H](CO)[C@@H](O)C2(F)F)c(=O)n1 [gemcitabine] | – | – | – | 33 | – | – | – | – | 26 | – | 20 | 54 | 50 | 47 | 62 | 1.9 | 24 | 38 | 24 | 8.5 | EC50 dose of monotherapy ([1]; 72 h): resistant; EC50 dose of monotherapy ([2]; 72 h): resistant; EC50 dose of monotherapy ([3]; 72 h): resistant; EC50 dose of monotherapy ([5]; 72 h): resistant; reduction of the population of viable cells [6, 16]: more than 98% |
| CNC(=O)c1cc(Oc2ccc(NC(=O)Nc3ccc(Cl)c(C(F)(F)F)c3)cc2)ccn1 [sorafenib] | 3600 ± 500 | 2700 | 12700 ± 1700 | 6800 ± 900 | 7400 ± 1000 | 4000 ± 600 | 620 ± 160 | 17000 ± 2800 | – | 7200 ± 800 | 2.4 | 1.8 | 2.3 | 4.7 | 4.4 | 0.0 | 0.0 | 0.0 | 0.0 | 0.0 | reduction of the population of viable cells [2, 16]: more than 98% |
